Here are results for 12 compounds from patent US11851436B2, “Fused bicyclic pyrimidine derivatives and uses thereof” (The Regents of the University of Colorado, A Body Corporate, priority 2021, dated 2023).

In one experiment the test system is MOLM-13 cells. The experiment is described as follows: MTS cellular viability assay in MOLM-13 cells. It is filed as cell-based. The following applies: Homo sapiens, 72 hr, 60 μM to 250 nM, n=3, ±S.D. The procedure:
Cell Culture: MOLM-13 (DSMZ) cells were cultured in RPMI1640 (Gibco) supplemented with 10% FBS (Sigma Aldrich) and 1% penicillin/streptomycin solution (Cellgro) at 37° C. in an incubator humidifier with 95% air and 5% CO2. HEK293 cells (ATCC) were cultured in Dulbecco's Modified Eagle Medium (DMEM; Gibco) supplemented with 10% FBS (Sigma Aldrich) and 1% penicillin/streptomycin solution (Cellgro) at 37° C. in an incubator humidifier with 95% air and 5% CO2. HEK293 cells were allowed to adhere for 24 h prior to use in assays.
MTS Cellular Viability Assay: MOLM-13 cells were seeded into sterile 96-well plates (Corning) at 60,000 cells per well in 100 μL of media. Inhibitor solutions were administered in 50 μL over a concentration range from 60 μM to 247 nM and cells were incubated at 37° C. for 24 to 72 h. Following 3 h incubation with 30 μL CellTiter 96® Aqueous One Cell Proliferation Reagent (Promega), cell viability was measured by formazan concentration assessment through colorimetric analysis using a BioTek Synergy H1 Hybrid plate reader (Absorption=490).
Exemplary compounds were assessed in cell systems for effects on cell viability, as well as their ability to inhibit cellular RSK2 activity.

The target of the next experiment is recombinant RSK2 kinase (Homo sapiens (Human), UniProt P51812). The experiment is described as follows: LANCE Eu TR-FRET recombinant RSK2 kinase inhibition assay. It is filed as biochemical. The settings on record: for IC50: recombinant RSK2, 3 μM ATP, mean ± S.D. (n=3). The procedure: All reagents were prepared in kinase buffer containing 2 mM DTT, 50 mM HEPES, 1 mM EGTA, 10 mM MgCl2, 0.01% Tween 20, pH 7.5. […] RSK2 was used at a final concentration of […]. […] Assays were performed at 25° C. in a reaction mixture consisting of 2 μL serially diluted inhibitor solution, 4 μL kinase, 2 μL substrate, and 2 μL ATP. Reagents were incubated at room temperature for 1 h before the reaction was stopped through the addition of 5 μL of EDTA at a final concentration of 10 mM.
The exemplary compounds were evaluated for their effect on RSK2 activity in the recombinant TR-FRET kinase inhibition assay and their half-maximal inhibitory potency values (IC50) were calculated using nonlinear regression analysis of the log dose-response.

Sequence of recombinant RSK2 kinase (P51812 whole entry): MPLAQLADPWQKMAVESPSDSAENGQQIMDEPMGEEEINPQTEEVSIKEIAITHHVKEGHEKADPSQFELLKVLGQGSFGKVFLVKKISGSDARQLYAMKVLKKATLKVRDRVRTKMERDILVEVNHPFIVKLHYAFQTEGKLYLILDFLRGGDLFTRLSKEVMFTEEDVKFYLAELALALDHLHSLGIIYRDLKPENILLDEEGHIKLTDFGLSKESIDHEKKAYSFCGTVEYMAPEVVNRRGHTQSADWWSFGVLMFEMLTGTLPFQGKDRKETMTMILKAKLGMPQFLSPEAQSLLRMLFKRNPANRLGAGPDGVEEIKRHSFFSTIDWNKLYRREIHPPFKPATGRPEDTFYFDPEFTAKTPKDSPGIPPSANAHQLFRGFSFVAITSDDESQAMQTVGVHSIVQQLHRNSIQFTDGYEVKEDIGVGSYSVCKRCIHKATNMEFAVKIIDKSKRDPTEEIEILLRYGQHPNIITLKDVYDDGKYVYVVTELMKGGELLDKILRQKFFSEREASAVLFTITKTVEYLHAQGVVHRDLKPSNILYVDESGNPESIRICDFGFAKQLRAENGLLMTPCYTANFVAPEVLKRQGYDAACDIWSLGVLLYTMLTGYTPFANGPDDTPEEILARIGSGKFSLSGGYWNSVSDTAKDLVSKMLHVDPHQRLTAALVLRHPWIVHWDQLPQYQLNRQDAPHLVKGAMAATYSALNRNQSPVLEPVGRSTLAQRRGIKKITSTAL

On to `CC(C)CCn1cnc2cnc(Nc3cc(F)c(O)c(F)c3)nc21` [A1-2, 2,6-Difluoro-4-((9-isopentyl-9H-purin-2-yl)amino)phenol], for which the EC50 in the experiment with MOLM-13 cells is 0.97 ± 0.1 µM. Moreover, the IC50 on recombinant RSK2 kinase was 0.0555 ± 0.0056 µM.
As for `Oc1c(F)cc(Nc2ncc3ncn(-c4ccc(N5CCOCC5)cc4)c3n2)cc1F` [A1-3, 2,6-Difluoro-4-((9-(4-morpholinophenyl)-9H-purin-2-yl)amino)phenol], the IC50 at recombinant RSK2 kinase was 0.0246 ± 0.003 µM.
Take `Oc1c(F)cc(Nc2ncc3ncn(-c4ccc(CCN5CCOCC5)cc4)c3n2)cc1F` [A1-4, 2,6-Difluoro-4-((9-(4-(2-morpholinoethyl)phenyl)-9H-purin-2-yl)amino)phenol]: in the experiment on MOLM-13 cells, the EC50 was 1.9 ± 0.07 µM. The concentration for half-maximal inhibition (IC50) at recombinant RSK2 kinase was found to be 0.0184 ± 0.004 µM.
For the compound `Oc1c(F)cc(Nc2ncc3ncn(-c4cccc(Oc5ccccc5)c4)c3n2)cc1F` [A1-6, 2,6-Difluoro-4-((9-(3-phenoxyphenyl)-9H-purin-2-yl)amino)phenol], at recombinant RSK2 kinase, the IC50 was 0.329 ± 0.037 µM.
Take `Oc1c(F)cc(Nc2ncc3ncn(-c4ccc(Oc5ccccc5)cc4)c3n2)cc1F` [A1-7, 2,6-Difluoro-4-((9-(4-phenoxyphenyl)-9H-purin-2-yl)amino)phenol]: on recombinant RSK2 kinase, the IC50 was found to be 0.148 ± 0.027 µM.
For the compound `Oc1cccc(-n2cnc3cnc(Nc4cc(F)c(O)c(F)c4)nc32)c1` [A1-10, 2,6-Difluoro-4-((9-(3-hydroxyphenyl)-9H-purin-2-yl)amino)phenol], the IC50 on recombinant RSK2 kinase is 0.0798 ± 0.0046 µM.
On to `Oc1ccc(-n2cnc3cnc(Nc4cc(F)c(O)c(F)c4)nc32)cc1` [A1-11, 2,6-Difluoro-4-((9-(4-hydroxyphenyl)-9H-purin-2-yl)amino)phenol], for which the IC50 on recombinant RSK2 kinase was 0.0818 ± 0.0007 µM.
As to `COC(=O)CCc1ccc(-n2cnc3cnc(Nc4cc(F)c(O)c(F)c4)nc32)cc1` [A1-12, Methyl 3-(4-(2-((3,5-difluoro-4-hydroxyphenyl)amino)-9H-purin-9-yl)phenyl)-propanoate], at recombinant RSK2 kinase, the IC50 turned out to be 0.0157 ± 0.004 µM.
As to `COC(=O)CCCc1ccc(-n2cnc3cnc(Nc4cc(F)c(O)c(F)c4)nc32)cc1` [A1-13, Methyl 4-(4-(2-((3,5-difluoro-4-hydroxyphenyl)amino)-9H-purin-9-yl)phenyl)butanoate], the EC50 in the experiment on MOLM-13 cells was 13.9 ± 0.7 µM. The IC50 on recombinant RSK2 kinase amounted to 0.0178 ± 0.001 µM. For the same compound, the “activity rank in the recombinant kinase assay” value at recombinant RSK2 kinase (statement in pharmacophore modeling text) is “most active molecule”.
As for `CC(C)CCn1ccc2cnc(Nc3cc(F)c(O)c(F)c3)nc21` [A1-15, 2,6-Difluoro-4-((7-isopentyl-7H-pyrrolo[2,3-d]pyrimidin-2-yl)amino)phenol], the EC50 in the experiment with MOLM-13 cells turned out to be 1.3 ± 0.06 µM. Further, the IC50 at recombinant RSK2 kinase turned out to be 0.0958 ± 0.011 µM.
For `Oc1c(F)cc(Nc2ncc3ccn(-c4ccc(N5CCOCC5)cc4)c3n2)cc1F` [A1-16, 2,6-Difluoro-4-((7-(4-morpholinophenyl)-7H-pyrrolo[2,3-d]pyrimidin-2-yl)amino)phenol], the EC50 in the experiment with MOLM-13 cells stood at 0.23 ± 0.003 µM. Besides, on recombinant RSK2 kinase, the IC50 amounted to 0.0257 ± 0.0024 µM.
For the compound `CN1CCN(c2ccc(-n3ccc4cnc(Nc5cc(F)c(O)c(F)c5)nc43)cc2)CC1` [A1-17, 2,6-Difluoro-4-((7-(4-(4-methylpiperazin-1-yl)phenyl)-7H-pyrrolo[2,3-d]pyrimidin-2-yl)amino)phenol], the EC50 in the experiment with MOLM-13 cells stood at 0.07 ± 0.003 µM. Besides, on recombinant RSK2 kinase, the IC50 came to 0.0347 ± 0.0013 µM.
